Experimental data reported in the supplement of paper PMC4862054.

What was measured:
Details in all cases: incubation time: 72 h
[1] = tested on: Hs578T; assay: drug sensitivity score (DSS), CellTiter-Blue viability (DSS (AUC-based score)); higher = stronger viability inhibition; extreme values may be limits of the assay
Method: (§1)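 DSRT with the CellTiter-Blue (resazurin reduction) viability readout, fluorescence 560/590 nm, 72 h incubation. Plates were normalised to DMSO and benzethonium chloride controls. DSS is computed from the area under the fitted dose-response curve (5 or 9 concentrations).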

[2] = tested on: CAL-51; assay: as above
Method: as §1

[3] = tested on: HCC1143; assay: as above
Method: as §1

[4] = tested on: CAL-120; assay: as above
Method: as §1

[5] = tested on: MDA-MB-468; assay: as above
Method: as §1

[6] = tested on: CAL-85-1; assay: as above
Method: as §1

[7] = tested on: SK-BR-3; assay: as above
Method: as §1

[8] = tested on: HCC1937; assay: as above
Method: as §1

[9] = tested on: MDA-MB-231; assay: drug sensitivity score (DSS), CellTox Green (DSS (AUC-based score)); higher = stronger drug effect (viability inhibition or cytotoxicity); extreme values may be limits of the assay
Outline: (§2)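 A drug sensitivity score was derived from the area under each fitted dose-response curve. Breast cancer cells (20 µl suspension) were seeded onto compound in 384-well plates, using 5 concentrations 10-fold apart over a compound-specific 10,000-fold range, and incubated 72 h. Readouts were CellTox Green fluorescence and then CellTiter-Glo luminescence, with every plate normalised to 0.1 % DMSO and a positive kill control.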

[10] = tested on: BT-474; assay: as above
Outline: as §2

[11] = tested on: Hs578T; assay: as above
Outline: as §2

[12] = tested on: HDQ-P1; assay: as above
Outline: as §2

[13] = tested on: HCC1599; assay: as above
Outline: as §2

[14] = tested on: MDA-MB-436; assay: as above
Outline: as §2

[15] = tested on: CAL-51; assay: as above
Outline: as §2

[16] = tested on: HCC1143; assay: as above
Outline: as §2

[17] = tested on: CAL-148; assay: as above
Outline: as §2

[18] = tested on: CAL-120; assay: as above
Outline: as §2

[19] = tested on: DU-4475; assay: as above
Outline: as §2

[20] = tested on: MDA-MB-468; assay: as above
Outline: as §2

[21] = tested on: CAL-85-1; assay: as above
Outline: as §2

[22] = tested on: MCF-10A; assay: as above
Outline: as §2

[23] = tested on: MDA-MB-453; assay: as above
Outline: as §2

[24] = tested on: BT-549; assay: as above
Outline: as §2

[25] = tested on: MFM-223; assay: as above
Outline: as §2

[26] = tested on: HCC1937; assay: as above
Outline: as §2

| Compound | drug sensitivity score [1] | drug sensitivity score [2] | drug sensitivity score [3] | drug sensitivity score [4] | drug sensitivity score [5] | drug sensitivity score [6] | drug sensitivity score [7] | drug sensitivity score [8] | drug sensitivity score [9] | drug sensitivity score [10] | drug sensitivity score [11] | drug sensitivity score [12] | drug sensitivity score [13] | drug sensitivity score [14] | drug sensitivity score [15] | drug sensitivity score [16] | drug sensitivity score [17] | drug sensitivity score [18] | drug sensitivity score [19] | drug sensitivity score [20] | drug sensitivity score [21] | drug sensitivity score [22] | drug sensitivity score [23] | drug sensitivity score [24] | drug sensitivity score [25] | drug sensitivity score [26] |
| --- | --- | --- | --- | --- | --- | --- | --- | --- | --- | --- | --- | --- | --- | --- | --- | --- | --- | --- | --- | --- | --- | --- | --- | --- | --- | --- |
| COc1ccc(C2=N[C@@H](c3ccc(Cl)cc3)[C@@H](c3ccc(Cl)cc3)N2C(=O)N2CCNC(=O)C2)c(OC(C)C)c1 [Nutlin-3] | 0 | 2.91 | 0 | 0 | 0 | 0 | 0 | 0 | 0 | 0 | 0 | 0 | 0 | 0 | 13.1 | 0 | 1.15 | 0 | 0 | 0 | 0 | 0 | 0 | 0 | 0 | 2.28 |
| CCOc1cc2ncc(C#N)c(Nc3ccc(OCc4ccccn4)c(Cl)c3)c2cc1NC(=O)/C=C/CN(C)C [Neratinib] | 0 | 0 | 0 | 0 | 0 | 0 | 0 | 0 | 4.21 | 4.09 | 0 | 0 | 0 | 0 | 0 | 0 | 0.237 | 0 | 0 | 9.51 | 3.47 | 0 | 0 | 0 | 0 | 0 |
| COc1cccc2c1C(=O)c1c(O)c3c(c(O)c1C2=O)C[C@@](O)(C(C)=O)C[C@@H]3O[C@H]1C[C@H](N)[C@H](O)[C@H](C)O1 [Daunorubicin] | 9.16 | 13.7 | 10.9 | 13.1 | 11.1 | 5.47 | 13.1 | 14.9 | 0 | 0 | 0 | 0 | 0 | 1.42 | 5.74 | 0 | 0 | 0 | 0 | 4.94 | 0 | 0 | 0 | 0 | 0 | 0 |
| CC(C)C[C@H](NC(=O)[C@H](Cc1ccccc1)NC(=O)c1cnccn1)B(O)O [Bortezomib] | 19.7 | 16.8 | 21.6 | 26.4 | 29.8 | 24.8 | 25.5 | 27.3 | 22.4 | 6.53 | 17.3 | 20.1 | 0 | 16.6 | 18.7 | 6.67 | 13.5 | 13.6 | 2.21 | 33.3 | 27.8 | 7.83 | 2.35 | 6.42 | 12.5 | 21.4 |
| O=C(c1ccc(OCCN2CCCCC2)cc1)c1c(-c2ccc(O)cc2)sc2cc(O)ccc12 [Raloxifene] | 0 | 0 | 0 | 0 | 0 | 0 | 0 | 0 | 0 | 0 | 2.23 | 1.26 | 0.798 | 0 | 0 | 0 | 0 | 1.42 | 0 | 0 | 0 | 0 | 0 | 0 | 0 | 0 |
| CC(=O)O[C@H]1C(=O)[C@@]2(C)[C@H]([C@H](OC(=O)c3ccccc3)[C@]3(O)C[C@H](OC(=O)[C@H](O)[C@@H](NC(=O)c4ccccc4)c4ccccc4)C(C)=C1C3(C)C)[C@]1(OC(C)=O)CO[C@@H]1C[C@@H]2O [Paclitaxel] | 24.4 | 19.3 | 17.6 | 22.2 | 16.4 | 18.3 | 26.6 | 22.9 | 25.5 | 12.7 | 20.3 | 0 | 0 | 7.09 | 22.7 | 0 | 7.75 | 2.71 | 0 | 26.9 | 23.2 | 21.4 | 0 | 9.38 | 13.7 | 0 |
| COc1c(C)cnc(Cn2cnc3c(Cl)nc(N)nc32)c1C [BIIB021] | 12.9 | 15.5 | 17 | 23.5 | 14.4 | 13.6 | 26.8 | 19.4 | 6.24 | 4.79 | 3.62 | 3.67 | 0 | 0 | 5.48 | 0 | 16 | 0 | 4.2 | 0 | 6.72 | 15.3 | 0 | 0 | 0 | 0 |
| C#Cc1cccc(Nc2ncnc3cc(OC)c(OCCCCCCC(=O)NO)cc23)c1 [CUDC-101] | 15.6 | 4.16 | 12.4 | 11.8 | 18 | 15 | 18.6 | 11.3 | 12.7 | 6.29 | 2.25 | 0 | 0 | 5.42 | 6.83 | 0 | 8.84 | 3.78 | 2.65 | 13 | 20.1 | 1.27 | 4.37 | 0 | 5.86 | 0 |
| COC1=C2C[C@@H](C)C[C@H](OC)[C@H](O)[C@@H](C)/C=C(\C)[C@H](OC(N)=O)[C@@H](OC)/C=C\C=C(/C)C(=O)NC(=CC1=O)C2=O [Geldanamycin] | 19.2 | 14.4 | 20.4 | 25.7 | 24.1 | 16.6 | 25.2 | 21.8 | 4.3 | 2.54 | 0 | 0 | 0 | 0 | 1.35 | 0 | 0 | 0 | 0.88 | 25 | 6.66 | 7.09 | 0 | 0 | 2.69 | 6.9 |
| C[C@@H]1C=C2C(=O)O[C@@H]3CC[C@H](C1)[C@]23O [Galiellalactone] | 0.961 | 0.94 | 0 | 0 | 6.59 | 9.4 | 6.66 | 5.76 | 0 | 0 | 0 | 0 | 0 | 0 | 0 | 0 | 0 | 0 | 0 | 0 | 1.02 | 0 | 0 | 0 | 0 | 0 |
| CCCC(CCC)C(=O)O [Valproic acid] | 0 | 0 | 0 | 0 | 0 | 0 | 0 | 0 | 0 | 0 | 0 | 0 | 0 | 0 | 0 | 0 | 0 | 0 | 0 | 0 | 0 | 0 | 0 | 0 | 0 | 0 |
| CN1CCN(c2ccc3nc(-c4c(N)c5c(F)cccc5[nH]c4=O)[nH]c3c2)CC1 [Dovitinib] | 0 | 0 | 0 | 0 | 0 | 0 | 0 | 3.16 | 0.731 | 0 | 4.14 | 0 | 0 | 0 | 0 | 0 | 0 | 0 | 0 | 0 | 0 | 0 | 0 | 0 | 0 | 0 |
